Molecules are shown by their SMILES. pIC50: −log10 of the molar value.

For the test, the target named is T1, human PPARγ1 (Homo sapiens, UniProt P37231).
T1 construct: made in house; host or cells: COS-1 cells transiently transfected with pMCMVneo-hPPARγ; crude supernatant of the lysate, not purified
T1 sequence (P37231 1-477 isoform P37231-2): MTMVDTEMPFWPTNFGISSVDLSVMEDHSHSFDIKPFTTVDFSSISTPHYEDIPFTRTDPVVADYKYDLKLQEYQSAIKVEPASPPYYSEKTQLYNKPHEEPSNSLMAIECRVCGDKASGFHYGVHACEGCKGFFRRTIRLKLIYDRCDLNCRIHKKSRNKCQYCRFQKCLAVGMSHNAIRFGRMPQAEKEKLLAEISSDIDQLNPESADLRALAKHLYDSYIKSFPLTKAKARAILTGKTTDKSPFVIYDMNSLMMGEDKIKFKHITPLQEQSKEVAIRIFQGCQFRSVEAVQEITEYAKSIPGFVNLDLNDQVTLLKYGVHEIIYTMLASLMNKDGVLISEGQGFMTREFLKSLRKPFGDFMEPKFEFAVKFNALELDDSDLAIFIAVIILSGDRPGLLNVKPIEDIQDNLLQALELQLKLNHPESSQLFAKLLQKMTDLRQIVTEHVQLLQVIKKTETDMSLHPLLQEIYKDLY
The test is described as follows: Measurement of human PPARγ1 binding activity ([3H]-compound A displacement). The settings on record: cell extract with 1.5 μg/ml full length hPPARγ1, 20 nM [3H]-compound A, 4° C., 16 hrs. The procedure: A cell extract containing 1.5 μg/ml of full length hPPARγ1 prepared in Reference Example 7a, 20 nM [^3H]-compound A (16 Ci/mmol)(Amersham Pharmacia Biotech) and a test compound were reacted in TEGM buffer at 4° C. for 16 hrs. To the reaction mixture was added activated carbon (Sigma) coated with 140 μl of dextran (Amersham Pharmacia Biotech) and gelatin (Sigma), and the mixture was left standing at 4° C. for 10 min and centrifuged at 910×g for 10 min. After centrifugation, the radioactivity of 30 μl of supernatant was measured with Topcount (Packard). In addition, a test similar to the above was conducted for the non-use of the aforementioned test compound and for the use of 100 μM of compound A instead of the aforementioned test compound, and the radioactivity was determined.
The human PPARγ1 binding activity of the test compound was evaluated using percentages wherein the measured value of the radioactivity when 20 nM [^3H]-compound A alone was added was 100%, and the measured value of the radioactivity when 20 nM [^3H]-compound A and 100 μM of compound A were simultaneously added was 0%. Moreover, the IC50 value of the test compound was calculated based on the analysis of the compound concentration and the percentage using PRISM3.0 (Graph Pad, Inc.).
COS-1 cells were seeded in a 150 cm^2 tissue culture flask (Corning Inc.) at 5×10^6 cells, and cultured under 37° C. 5% CO2 conditions for 24 hrs. Transfection was performed using lipofectamine (GIBCO BRL). To be specific, 125 μl of lipofectamine, 100 μl of PLUS Reagent and 15 μg of hPPARγ expression plasmid (plasmid pMCMVneo-hPPARγ obtained in Reference Example 6a) were mixed with opti-MEM (GIBCO BRL) to give a transfection mixture. The transfection mixture (25 ml) was added to COS-1 cells and the cells were cultured under 37° C. 5% CO2 conditions for 3 hrs. Then 25 ml of DMEM medium (Nikken Biomedical Laboratory) containing 10% FCS treated with activated carbon (Sigma) was added to the cells and the cells were cultured under 37° C. 5% CO2 conditions. After 24 hrs., the medium was substituted with 50 ml of DMEM medium (Nikken Biomedical Laboratory) containing 5% FCS treated with activated carbon, and the cells were cultured under 37° C., 5% CO2 conditions. After 48 hrs, the transfected cells were recovered and washed with TEG buffer (10 mM Tris-HCl (pH 7.2), 50 mM EDTA, 10% glycerol). The cells were suspended in 1 ml TEGM buffer (10 mM Tris-HCl (pH 7.2), 1 mM EDTA, 10% glycerol, 7 μl/100 ml β-mercaptoethanol, 10 mM Na molybdate, 1 mM dithiothreitol, 2 tablets/100 ml Protease inhibitor Cocktail tablets (Boehringer Mannheim)) and, for cell lysis, frozen with liquid nitrogen and thawed on ice. To remove the debris of the cells, the extract was centrifuged at 228,000×g, 4° C. for 20 min. and the supernatant was preserved at −80° C. until use.
The molecule `Cc1oc(-c2ccco2)nc1COc1ccc(COc2nn(Cc3ccccc3)cc2C=O)cn1` [Example 42, 1-benzyl-3-[(6-{[2-(2-furyl)-5-methyl-1,3-oxazol-4-yl]methoxy}-3-pyridinyl)methoxy]-1H-pyrazole-4-carbaldehyde] gave a pIC50 of 5.96. Next, `CCOC(=O)c1cn(-c2ccccc2)nc1OCc1ccc(OCc2nc(-c3ccco3)oc2C)c(OC)c1` [Example 72, ethyl 3-[(4-{[2-(2-furyl)-5-methyl-1,3-oxazol-4-yl]methoxy}-3-methoxybenzyl)oxy]-1-phenyl-1H-pyrazole-4-carboxylate]: 6.11; `COc1cc(COc2nn(-c3ccccc3)cc2CO)ccc1OCc1nc(-c2ccco2)oc1C` [Example 75, {3-[(4-{[2-(2-furyl)-5-methyl-1,3-oxazol-4-yl]methoxy}-3-methoxybenzyl)oxy]-1-phenyl-1H-pyrazol-4-yl}methanol]: 6.18.

In turn, `COc1cc(COc2nn(-c3ccccc3)cc2C=O)ccc1OCc1nc(-c2ccco2)oc1C` [Example 76, 3-[(4-{[2-(2-furyl)-5-methyl-1,3-oxazol-4-yl]methoxy}-3-methoxybenzyl)oxy]-1-phenyl-1H-pyrazole-4-carbaldehyde] showed a negative-log IC50 (pIC50) of 6.72.

`COc1cc(COc2nn(-c3ccccc3)cc2C#N)ccc1OCc1nc(-c2ccco2)oc1C` [Example 77, 3-[(4-{[2-(2-furyl)-5-methyl-1,3-oxazol-4-yl]methoxy)-3-methoxybenzyl)oxy]-1-phenyl-1H-pyrazole-4-carbonitrile] showed a pIC50 of 7.10. This pIC50 lies 0.38 log units higher than the previous one. The result for `CCOP(=O)(CCc1cn(-c2ccccc2)nc1OCc1ccc(OCc2nc(-c3ccco3)oc2C)c(OC)c1)OCC` [Example 100, diethyl 2-{3-[(4-{[2-(2-furyl)-5-methyl-1,3-oxazol-4-yl]methoxy}-3-methoxybenzyl)oxy]-1-phenyl-1H-pyrazol-4-yl}ethylphosphonate] reads 6.68; that for `CCOP(=O)(/C=C/c1cn(-c2ccccc2)nc1OCc1ccc(OCc2nc(-c3ccco3)oc2C)c(OC)c1)OCC` [Example 116 (E form), diethyl (E)-2-{3-[(4-{[2-(2-furyl)-5-methyl-1,3-oxazol-4-yl]methoxy}-3-methoxybenzyl)oxy]-1-phenyl-1H-pyrazol-4-yl}ethenylphosphonate], 7.41; that for `COc1cc(COc2nn(-c3ccccc3)cc2/C=C/P(=O)(OC(C)C)OC(C)C)ccc1OCc1nc(-c2ccco2)oc1C` [Example 145, diisopropyl (E)-2-{3-[(4-{[2-(2-furyl)-5-methyl-1,3-oxazol-4-yl]methoxy}-3-methoxybenzyl)oxy]-1-phenyl-1H-pyrazol-4-yl}ethenylphosphonate], 7.10.

In turn, `CCOP(=O)(/C=C/c1cn(-c2ccccc2)nc1OCc1ccc(OCc2nc(-c3ccccc3)oc2C)c(OC)c1)OCC` [Example 146, diethyl (E)-2-[3-({3-methoxy-4-[(5-methyl-2-phenyl-1,3-oxazol-4-yl)methoxy]benzyl}oxy)-1-phenyl-1H-pyrazol-4-yl]ethenylphosphonate] had a negative logarithm of the IC50 (pIC50) of 7.17. For `COc1cc(COc2nn(-c3ccccc3)cc2/C=C/c2csc(C)n2)ccc1OCc1nc(-c2ccco2)oc1C` [Example 150 (E form), 2-(2-furyl)-4-({2-methoxy-4-[({4-[(E)-2-(2-methyl-1,3-thiazol-4-yl)ethenyl]-1-phenyl-1H-pyrazol-3-yl}oxy)methyl]phenoxy}methyl)-5-methyl-1,3-oxazole], the pIC50 was 7.30. This pIC50 and that of the molecule before are within 0.2 log units of each other.

As for `CCC(=O)/C=C/c1cn(-c2ccccc2)nc1OCc1ccc(OCc2nc(-c3ccco3)oc2C)c(OC)c1` [Example 156, (1E)-1-{3-[(4-{[2-(2-furyl)-5-methyl-1,3-oxazol-4-yl]methoxy}-3-methoxybenzyl)oxy]-1-phenyl-1H-pyrazol-4-yl}-1-penten-3-one], the pIC50 was 5.14. As to `CCOP(=O)(/C=C/c1cn(-c2ccccc2)nc1OCc1ccc(OCc2csc(N3CCOCC3)n2)c(OC)c1)OCC` [Example 191, diethyl (E)-2-{3-[(3-methoxy-4-{[2-(morpholin-4-yl)-1,3-thiazol-4-yl]methoxy}benzyl)oxy]-1-phenyl-1H-pyrazol-4-yl}ethenylphosphonate], the negative logarithm of the IC50 (pIC50) was 6.09. Next, `CCOP(=O)(/C=C/c1cn(-c2ccccc2)nc1OCc1ccc(OCc2nc(-c3cccc(C(=O)O)c3)oc2C)c(OC)c1)OCC` [Example 203, 3-[4-({4-[({4-[(E)-2-(diethoxyphosphoryl)ethenyl]-1-phenyl-1H-pyrazol-3-yl}oxy)methyl]-2-methoxyphenoxy}methyl)-5-methyl-1,3-oxazol-2-yl]benzoic acid]: 8.32.

In turn, `CCOP(=O)(/C=C/c1cn(-c2ccccc2)nc1OCc1ccc(OCc2nc(-c3cccc(C(=O)OC)c3)oc2C)c(OC)c1)OCC` [Example 211, methyl 3-[4-({4-[({4-[(E)-2-(diethoxyphosphoryl)ethenyl]-1-phenyl-1H-pyrazol-3-yl}oxy)methyl]-2-methoxyphenoxy}methyl)-5-methyl-1,3-oxazol-2-yl]benzoate] showed a pIC50 of 7.57. With `CCc1nc(/C=C/c2cn(-c3ccccc3)nc2OCc2ccc(OCc3nc(-c4cccc(C(=O)O)c4)oc3C)c(OC)c2)cs1` [Example 224, 3-[4-({4-[({4-[(E)-2-(2-ethyl-1,3-thiazol-4-yl)ethenyl]-1-phenyl-1H-pyrazol-3-yl}oxy)methyl]-2-methoxyphenoxy}methyl)-5-methyl-1,3-oxazol-2-yl]benzoic acid], the pIC50 was 8.44. Against the preceding molecule, the pIC50 is 0.87 log units higher. In the case of `CCOP(=O)(/C=C/c1cn(-c2ccccc2)nc1OCc1ccc(OCc2nc(-c3cccc(C(N)=O)c3)oc2C)c(OC)c1)OCC` [Example 239, diethyl (E)-2-(3-{[4-({2-[3-(carbamoyl)phenyl]-5-methyl-1,3-oxazol-4-yl}methoxy)-3-methoxybenzyl]oxy}-1-phenyl-1H-pyrazol-4-yl)ethenylphosphonate], the negative logarithm of the IC50 (pIC50) is 7.21.

With `CCOP(=O)(/C=C/c1cn(-c2ccccc2)nc1OCc1ccc(OCc2nc(-c3ccc(CC(=O)O)cc3)oc2C)c(OC)c1)OCC` [Example 241, {4-[4-({4-[({4-[(E)-2-(diethoxyphosphoryl)ethenyl]-1-phenyl-1H-pyrazol-3-yl}oxy)methyl]-2-methoxyphenoxy}methyl)-5-methyl-1,3-oxazol-2-yl]phenyl}acetic acid], the pIC50 was 7.16. The pIC50 values of the last two molecules are within 0.2 log units of each other. Consider `CCOP(=O)(/C=C/c1cn(-c2ccccc2)nc1OCc1ccc(OCc2nc(-c3cccc(CC(=O)O)c3)oc2C)c(OC)c1)OCC` [Example 249, {3-[4-({4-[({4-[(E)-2-(diethoxyphosphoryl)ethenyl]-1-phenyl-1H-pyrazol-3-yl}oxy)methyl]-2-methoxyphenoxy}methyl)-5-methyl-1,3-oxazol-2-yl]phenyl}acetic acid], for which the pIC50 is 7.48. `CCOP(=O)(/C=C/c1cn(-c2ccccc2)nc1OCc1ccc(OCc2nc(-c3ccc(OC)c(C(=O)O)c3)oc2C)c(OC)c1)OCC` [Example 252, 5-{4-({4-[({4-[(E)-2-(diethoxyphosphoryl)ethenyl]-1-phenyl-1H-pyrazol-3-yl}oxy)methyl]-2-methoxyphenoxy}methyl)-5-methyl-1,3-oxazol-2-yl}-2-methoxybenzoic acid] had a negative logarithm of the IC50 (pIC50) of 7.64. Regarding `COc1cc(COc2nn(-c3ccccc3)cc2/C=C/C#N)ccc1OCc1nc(-c2ccccc2)oc1C` [Example 282, (E)-3-(3-{[3-methoxy-4-(5-methyl-2-phenyl-1,3-oxazol-4-ylmethoxy)benzyl]oxy}-1-phenyl-1H-pyrazol-4-yl)-2-propenonitrile], the negative logarithm of the IC50 (pIC50) was 6.92.

For the origin of these results see patent publication US7368578B2, “Five-membered heterocyclic compounds” (Takeda Pharmaceutical Company Limited, priority 2002, dated 2008).
